# Laboratory results published in the supplement of paper PMC7600603.
# Columns and labels:
# [1] = tested on: DLD1 NRF2-WT; assay: TC50 cytotoxicity; higher = less toxic; conditions: 72 h; CellTox Green cytotoxicity
# How it was run: (§1)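 In 384-well plates, isogenic DLD1 cells with NRF2 wild-type or CRISPR-edited status, grown in DMEM with 10% FBS, received library compounds at 5 concentrations spanning a 10,000-fold range. At 72 h, CellTox Green signals were read on a Pherastar FS reader and scaled between vehicle wells and 100-μM positive-control wells. Cytotoxicity endpoints, TC50 and a drug sensitivity score based on normalised area under the curve, came from logistic dose-response fits.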
# [2] = tested on: DLD1 NRF2-GOF; assay: TC50 cytotoxicity; higher = less toxic; conditions: 72 h; CellTox Green cytotoxicity
# How it was run: as §1
# [3] = tested on: DLD1 NRF2-WT; assay: drug sensitivity score (DSS) cytotoxicity (DSS score); higher = more toxic; extreme values may be limits of the assay; conditions: 72 h; CellTox Green cytotoxicity
# How it was run: as §1
# [4] = tested on: DLD1 NRF2-GOF; assay: as above; conditions: 72 h; CellTox Green cytotoxicity
# How it was run: as §1
# [5] = tested on: DLD1 NRF2-WT; assay: drug sensitivity score (DSS) viability (DSS score); higher = more sensitive; extreme values may be limits of the assay; conditions: 72 h; CellTiter-Glo viability
# How it was run: (§2)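 DLD1 colorectal cancer cells, an isogenic pair either NRF2 wild-type or carrying a CRISPR gain-of-function, were cultured in DMEM with 10% FBS and treated in 384-well plates with library compounds at 5 concentrations across a 10,000-fold range. CellTiter-Glo viability was read on a Pherastar FS reader after 72 h and normalised to vehicle wells and 100-μM positive-control wells. Four-parameter logistic dose-response fits were applied. EC50 and drug sensitivity score, a normalised area under the curve, were taken from these fits.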
# [6] = tested on: DLD1 NRF2-GOF; assay: as above; conditions: 72 h; CellTiter-Glo viability
# How it was run: as §2
# [7] = tested on: DLD1 NRF2-WT; conditions: 72 h; CellTiter-Glo viability
# How it was run: as §2
# [8] = tested on: DLD1 NRF2-GOF; conditions: 72 h; CellTiter-Glo viability
# How it was run: as §2
EC50 viability [7],EC50 viability [8],SMILES,TC50 cytotoxicity [1],TC50 cytotoxicity [2],drug sensitivity score [3],drug sensitivity score [4],drug sensitivity score [5],drug sensitivity score [6]
> 10000 nM,> 10000 nM,CC[C@@H]1[C@H](F)C(=O)N[C@@H]1COc1nccc2cc(C(N)=O)c(OC)cc12,> 10 µM,> 10 µM,0,0,0.5,2.4
547 nM,479 nM,CCCCC(=O)OCC(=O)[C@]1(O)Cc2c(O)c3c(c(O)c2[C@@H](O[C@H]2C[C@H](NC(=O)C(F)(F)F)[C@H](O)[C@H](C)O2)C1)C(=O)c1c(OC)cccc1C3=O [Valrubicin],> 5 µM,> 5 µM,0,0,6.8,8.1
35.5 nM,29.7 nM,CN(Cc1cnc2nc(N)nc(N)c2n1)c1ccc(C(=O)N[C@@H](CCC(=O)O)C(=O)O)cc1 [Methotrexate],> 5 µM,> 5 µM,0,0,23.4,23.8
67 nM,50.4 nM,COC[C@H](NC(=O)c1cnc(C)s1)C(=O)N[C@@H](COC)C(=O)N[C@@H](Cc1ccccc1)C(=O)[C@@]1(C)CO1 [Oprozomib],0.0569 µM,0.116 µM,19.7,15.9,18.8,20.2
1770 nM,3120 nM,Nc1ncnc2c1c(-c1cccc(OCc3ccccc3)c1)cn2[C@H]1C[C@@H](CN2CCC2)C1 [NVP-AEW541],> 10 µM,> 10 µM,0.1,1.5,6.8,5
120 nM,180 nM,FC(F)c1nc2ccccc2n1-c1nc(N2CCOCC2)nc(N2CCOCC2)n1 [ZSTK474],> 10 µM,> 10 µM,0,0,11.4,6.2
> 10000 nM,> 10000 nM,O=c1ncn2nc(Sc3ccc(F)cc3F)ccc2c1-c1c(Cl)cccc1Cl [VX-745],> 10 µM,> 10 µM,0,0,1.4,0.2
725 nM,1340 nM,CC1(C)OCCn2c1nc1c(N3CCOCC3)nc(-c3cnc(N)nc3)nc12 [GDC-0084],3.65 µM,> 10 µM,1.1,0.3,10.9,8.4
20.2 nM,103 nM,COc1cc(C)c(/C=C/C(C)=C/C=C/C(C)=C/C(=O)O)c(C)c1C [Acitretin],> 10 µM,> 10 µM,0,0,15.5,10.3
737 nM,365 nM,COc1cccc(OCCCN)c1-c1cc(Nc2cnc(C#N)cn2)n[nH]1 [Prexasertib],1.49 µM,0.931 µM,3.8,3.6,12.1,13.5
295 nM,1560 nM,CN1CCc2c(c3ccccc3n2Cc2ccc(C(=O)NO)cc2)C1 [Tubastatin A],> 10 µM,> 10 µM,0,0,4,4.1
> 1000 nM,> 1000 nM,CNC(=O)c1ccc(C)c(-n2c(C)cc(OCc3ccc(F)cc3F)c(Br)c2=O)c1,> 1 µM,> 1 µM,0,0,1.3,0
98.4 nM,223 nM,CC(C)(C)c1cnc(CSc2cnc(NC(=O)C3CCNCC3)s2)o1 [SNS-032],> 10 µM,> 10 µM,0.8,0,23.1,17.5
> 2500 nM,> 2500 nM,CN1CCN(C2CCN(C(=O)Nc3cc(Oc4ccc(NC(=O)C5(C(=O)Nc6ccc(F)cc6)CC5)c(F)c4)ccn3)CC2)CC1 [Golvatinib],> 2.5 µM,> 2.5 µM,0,0,1.2,0
> 10000 nM,315 nM,CC(C)[C@H]1C(=O)N[C@@H](CCCNC(=N)N)C(=O)NCC(=O)N[C@@H](CC(=O)O)C(=O)N[C@H](Cc2ccccc2)C(=O)N1C [Cilengitide],> 10 µM,> 10 µM,0,0,0,3.9
26.6 nM,22.8 nM,CC(C)c1cc(-c2n[nH]c(=O)n2-c2ccc3c(ccn3C)c2)c(O)cc1O [Ganetespib],> 1 µM,> 1 µM,0,0,17.9,18.4
> 2500 nM,> 2500 nM,Cc1cc([C@@H](C)Nc2ccccc2C(=O)O)c2nc(N3CCOCC3)cc(=O)n2c1 [AZD-6482],> 2.5 µM,> 2.5 µM,0,0,0.1,0
3500 nM,1290 nM,Nc1nc2[nH]cnc2c(=S)[nH]1 [Thioguanine],> 10 µM,> 10 µM,0.2,0,4.4,9.4
321 nM,3540 nM,C#Cc1cccc(Nc2ncnc3cc(OCCOC)c(OCCOC)cc23)c1 [Erlotinib],> 10 µM,> 10 µM,0,0,6.9,1.3
> 10000 nM,> 10000 nM,Clc1ccc(C(c2ccccc2Cl)C(Cl)Cl)cc1 (centres undefined) [Mitotane],> 10 µM,> 10 µM,0,0,0,1.8

EC50 viability [7],EC50 viability [8],SMILES,TC50 cytotoxicity [1],TC50 cytotoxicity [2],drug sensitivity score [3],drug sensitivity score [4],drug sensitivity score [5],drug sensitivity score [6]
464 nM,1440 nM,COc1cc(Br)c(Nc2nc(-c3c(C)nc4ncccn34)cs2)c(Br)c1 [PTC-209],> 10 µM,> 10 µM,0,0,10.8,6.2
1030 nM,1460 nM,CC1(COc2ccc3c(c2)ncn3-c2ccc3cccc(N4CCC(N)CC4)c3n2)COC1 [Crenolanib],2.65 µM,2.89 µM,4.3,6.1,10.9,9.3
4210 nM,2140 nM,CN(C)CCOc1ccc(/C(=C(/CCCl)c2ccccc2)c2ccccc2)cc1 [Toremifene],> 10 µM,> 10 µM,0,0,2.2,4.8
13.2 nM,26.1 nM,Cn1c(=O)n(-c2ccc(C(C)(C)C#N)cc2)c2c3cc(-c4cnc5ccccc5c4)ccc3ncc21 [Dactolisib],> 1 µM,> 1 µM,0,0,13.9,9.8
1990 nM,2300 nM,CCn1c(-c2nonc2N)nc2cnc(Oc3cccc(NC(=O)c4ccc(OCCN5CCOCC5)cc4)c3)cc21,> 10 µM,1.55 µM,1.2,6.1,5.4,6.3
> 10000 nM,1030 nM,C=C(c1ccc(C(=O)O)cc1)c1cc2c(cc1C)C(C)(C)CCC2(C)C [Bexarotene],> 10 µM,> 10 µM,0,0,0,3.9
1780 nM,3130 nM,Nc1cc(C(F)(F)F)c(-c2cc(N3CCOCC3)nc(N3CCOCC3)n2)cn1 [Buparlisib],> 10 µM,> 10 µM,0.4,0,7,4.2
2280 nM,42.9 nM,CC(C)NC(=O)COc1cccc(-c2nc(Nc3ccc4[nH]ncc4c3)c3ccccc3n2)c1 [KD025],> 5 µM,> 5 µM,0,0,1.8,5.4
3040 nM,3590 nM,COc1cc2nccc(Oc3ccc(NC(=O)Nc4cc(C)on4)c(Cl)c3)c2cc1OC [Tivozanib],2.92 µM,2.64 µM,2.3,4.5,3.1,2.3
> 10000 nM,1700 nM,COC12C(COC(N)=O)C3=C(C(=O)C(C)=C(N)C3=O)N1CC1NC12 (stereo in doubt) [Mitomycin C],> 10 µM,> 10 µM,0,0,0,4
2290 nM,3700 nM,CN(c1ncccc1CNc1nc(Nc2ccc3c(c2)CC(=O)N3)ncc1C(F)(F)F)S(C)(=O)=O,> 10 µM,> 10 µM,0,0,6.7,4.1
148 nM,145 nM,CN(C)C/C=C/C(=O)Nc1cc2c(Nc3ccc(F)c(Cl)c3)ncnc2cc1O[C@H]1CCOC1 [Afatinib],> 1 µM,> 1 µM,0,0,3.3,2.9
166 nM,171 nM,Nc1nc(Cl)nc2c1ncn2[C@@H]1O[C@H](CO)[C@@H](O)[C@@H]1F [Clofarabine],> 10 µM,> 10 µM,0,0,11.8,13.2
1500 nM,1090 nM,CC[C@@]1(O)C(=O)OCc2c1cc1n(c2=O)Cc2cc3c(CN(C)C)c(O)ccc3nc2-1 [Topotecan],2.2 µM,3.39 µM,3.1,1.9,8.1,9.2
> 2500 nM,> 2500 nM,CC(C)Oc1ccc(-c2nn([C@@H](C)c3oc4ccc(F)cc4c(=O)c3-c3cccc(F)c3)c3ncnc(N)c23)cc1F [TGR-1202],> 2.5 µM,> 2.5 µM,0,0,0,0
6.5 nM,7.5 nM,CC(C)C[C@H](NC(=O)[C@H](CCc1ccccc1)NC(=O)CN1CCOCC1)C(=O)N[C@@H](Cc1ccccc1)C(=O)N[C@@H](CC(C)C)C(=O)[C@@]1(C)CO1 [Carfilzomib],0.0061 µM,0.0143 µM,26.9,22.3,26.6,25.8
414 nM,361 nM,COc1cc2c(Oc3ccc(NC(=O)C4(C(=O)Nc5ccc(F)cc5)CC4)cc3F)ccnc2cc1OCCCN1CCOCC1 [Foretinib],0.28 µM,0.267 µM,3.2,6.3,2.1,3.3
66.4 nM,199 nM,COc1c(OCCCN2CCOCC2)ccc2c1N=C(NC(=O)c1cnc(N)nc1)N1CCN=C21 [Copanlisib],> 1 µM,> 1 µM,0.8,0,8.1,2.9
> 10000 nM,1680 nM,Cc1cc(C)c(CNC(=O)c2cc(-c3ccc(CN4CCOCC4)cc3)cc3c2cnn3C2CCCC2)c(=O)[nH]1 [EPZ-5687],> 10 µM,> 10 µM,0,0,3.3,3.2
110 nM,125 nM,CC(C)C[C@H](NC(=O)CNC(=O)c1cc(Cl)ccc1Cl)B(O)O [Ixazomib],0.148 µM,0.246 µM,9.6,6.8,11,10.3

SMILES,EC50 viability [7],EC50 viability [8],TC50 cytotoxicity [1],TC50 cytotoxicity [2],drug sensitivity score [3],drug sensitivity score [4],drug sensitivity score [5],drug sensitivity score [6]
C=C1C[C@@H]2[C@H](CC[C@]3(C)C(=O)CC[C@@H]23)[C@@]2(C)C=CC(=O)C=C12 [Exemestane],> 10000 nM,> 10000 nM,> 10 µM,> 10 µM,0,0,0.1,0.9
CCOc1ccccc1-n1c(C(C)N2CCN(C(=O)COc3ccc(Cl)cc3)CC2)nc2ccccc2c1=O (centres undefined) [Erastin],> 10000 nM,> 10000 nM,> 10 µM,> 10 µM,0,0,0,0
O=C1c2c(O)ccc(O)c2C(=O)c2c(NCCNCCO)ccc(NCCNCCO)c21 [Mitoxantrone],67.4 nM,96.9 nM,> 1 µM,> 1 µM,0,0,12.3,10.1
